Assay results as given in patent US4902675A, “"2-pyridyl and 4-pyridyl phosphine gold (I) anti tumor complexes"” (SmithKline Beckman Corporation, priority 1986, dated 1990).
“And” between values parts separate entries of the source, which are not always exact repeats. Equal values may be shown once.

Tests used:
[1] = literature, Struck et al. 1966; cited from earlier work
[2] = maximally tolerated dose for female mice, ip qDX5 (P388 study); format: in vivo, mouse; details: B62DF female mice, ip qDX5 regimen
Description: (§1) 10^6 P388 leukemia cells are inoculated ip in B6D2F1 mice. Twenty-four hours later, if the tumor inoculum proves to be free of bacterial contamination (as determined by 24 hours incubation in thioglycollate broth), animals are randomized into groups of 6 and housed in shoebox cages. The compound to be evaluated is dissolved in a minimal volume of either N,N-dimethylacetamide (DMA) or 95% ethanol (depending upon solubility). An equal volume of saline is added; if the drug comes out of solution an equal volume of polyethoxylated castor oil is added and then saline qs to a concentration such that the desired dose is delivered in 0.5 ml. The final concentration of DMA, ethanol and polyethoxylated castor oil is […]. Dilutions for lower doses are made with saline so there is a decreasing proportion of organic solvents in the vehicle with decreasing dosage. These vehicles provide soluble formulations (or suspensions). Formulations are prepared immediately prior to injection. The compound is administered ip on Days 1 through 5 (i.e. treatment is initiated 24 hrs after tumor inoculation). Each experiment includes three groups of 6 animals as untreated controls and animals treated with a positive control, cisplatin, at two dose levels. Animals are weighed as a group on Days 1, 5 and 9 and average weight change (Δ wt.) is used as a reflection of toxicity. Each experiment also includes an inoculum titration-groups of 8 mice inoculated ip with 10^5 to 10^0 P388 leukemia cells. The titration is used to calculate cell kill achieved by treatment with drugs. Animals are monitored daily for mortality and experiments are terminated after 45 days. The endpoint is median survival time (MST) and increase in lifespan (ILS) which is the percentage of increase in MST relative to untreated controls. Untreated controls inoculated ip with 10^6 P388 leukemia cells generally survive for a median of 9 to 11 days. A drug is considered active if it produces ≥25 percent ILS.
^(a) maximally tolerated dose for […] female mice on an ip qDX5

P388 leukemia = assay: in vivo ip P388 lymphocytic leukemia mouse model, increase in lifespan; details: mice bearing ip P388 leukemia; ip Days 1 through 5; figures separated by slashes are data from separate experiments; active if ≥25 percent ILS
Excerpt: P388 lymphocytic leukemia is currently the most widely used animal tumor model for screening for antitumor agents and for detailed evaluation of active compounds. This tumor system is widely accepted as an antitumor agent screening tool because it is sensitive to virtually all of the clinically active antineoplastic agents; quantitative and reproducible; amenable for large-scale screening; and predictive for activity in other animal tumor models.
as §1, with “The endpoint is median survival time (MST) and increase in lifespan (ILS) which is the percentage of increase in MST relative to untreated controls. Untreated controls inoculated ip with 10^6 P388 leukemia cells generally survive for a median of 9 to 11 days. A drug is considered active if it produces ≥25 percent ILS.” left out

B16 melanoma = assay: in vivo ip B16 melanoma assay, increase in lifespan; design: species or system mouse; details: mice bearing ip B16 melanoma; ip qD × 9; ILS ≥25% indicates activity
Description: (§2) In this system, groups of eight B6D2F1 mice are inoculated ip with 0.5 ml of a 10% (w:v) brei of B16 melanoma prepared from pooled sc tumors excised at 14-21 days from […] donor mice. Daily treatment is begun 24 hours after tumor impantation and is continued daily for ten (10) days. The route of drug administration is ip. The mice are monitored daily for survival for sixty (60) days. Antitumor activity is assessed by prolongation of median survival time. An ILS of≥25% indicates activity in this tumor model.
(§3) ^(b) maximally tolerated dose for B6D2F1 mice on an ipqD ×
(§4) 9 regimen (Regimen is preferably qD × 10 but supply of Compound No.
(§5) 3 was extinguished on day 9).
^(c) maximum increase in lifespan produced in mice bearing ip B16

[3] = maximally tolerated dose for B6D2F1 mice, ip qD × 9 (B16 study); format: in vivo, mouse; details: ip qD × 9 regimen
Description: as §2, §3, §4, §5

| Compound | cytotoxic activity [1] | MTD, maximally tolerated dose [2] [mg/kg] | ILS (max), maximum increase in lifespan (P388 leukemia) | ILS, maximum increase in lifespan (B16 melanoma) [%] | MTD, maximally tolerated dose [3] [mg/kg] |
| --- | --- | --- | --- | --- | --- |
| c1ccc(P(CCP(c2ccccc2)c2ccccc2)c2ccccc2)cc1 [1,2-bis(diphenylphosphino)ethane] | cytotoxic activity | – | – | – | – |
| [Cl][Au][PH](CC[PH]([Au][Cl])(c1ccccn1)c1ccccn1)(c1ccccn1)c1ccccn1 [Compound 1, μ-[1,2-Bis(di-2-pyridylphosphino)ethane]bis(chlorogold)] | – | 6 | 55% and 60% | – | – |
| [Cl][Au][PH](CC[PH]([Au][Cl])(c1ccncc1)c1ccncc1)(c1ccncc1)c1ccncc1 [Compound 2, μ-[1,2-Bis(di-4-pyridylphosphino)ethane]bis(chlorogold)] | – | 12 | – | – | – |
| [Au+].[Cl-].c1ccc(P(CCP(c2ccccn2)c2ccccn2)c2ccccn2)nc1.c1ccc(P(CCP(c2ccccn2)c2ccccn2)c2ccccn2)nc1 [Compound 3, Chlorobis[1,2-bis(di-2-pyridylphosphino)ethane]gold] | – | 8 | 80% and 75% and 83% and 84% | 43 | 10 |
| OCC1OC([S][Au][PH](CC[PH]([Au][S]C2OC(CO)C(O)C(O)C2O)(c2ccccn2)c2ccccn2)(c2ccccn2)c2ccccn2)C(O)C(O)C1O (stereo not shown) [Compound 4] | – | 8 | 85% and 53% and 56% | – | – |
